# Data published in publication PMC10851555, “Safinamide, an inhibitor of monoamine oxidase, modulates the magnitude, gating, and hysteresis of sodium ion current” (BMC Pharmacology & Toxicology, 2024).
# Read-outs that look alike come from different tables or passages of the source.
# Assays:
# Type in all cases: cell-based, rat
# [1] = test system: voltage-gated sodium ion (NaV) channels in pituitary GH3 cells; assay: Whole-cell patch-clamp of INa induced by a 30-ms depolarizing pulse (−100 to −10 mV) in GH3 cells; details: for reversal of SAF-mediated increase in INa(T): 10 μM added during exposure to SAF (30 μM); for reversal of SAF-mediated increase in INa(T) / effect on magnitude of INa(T): n = 7; for effect on magnitude of INa(T): dopamine or serotonin alone
# [2] = test system: voltage-gated sodium ion (NaV) channels in pituitary GH3 cells; assay: Whole-cell INa(T) decay during a 1-s, 20-Hz train of depolarizing pulses in GH3 cells; details: for effect on SAF-induced increase in decaying time constant of INa(T): 10 μM added in the presence of 10 μM SAF; for decaying time constant of INa(T) during train of depolarizing pulses: 10 μM alone, control 66 ± 5 ms, n = 7
# Procedure: Shortly before experiments, GH3 was carefully suspended in normal Tyrode’s solution at room temperature (20–25 °C). A few drops of the suspension containing cell clumps were immediately added to a custom-built chamber on the stage of an inverted Diaphot-200 microscope (Nikon, Tokyo, Japan). Pipettes were pulled from Kimax-51 soft-glass capillaries (#34500-99; Kimble, Vineland, NJ) by using a Narishige PP-830 Vertical Puller (Tokyo, Japan), and their tips were fire-polished using a microforge (MF-83, Narishige). During the measurements, an electrode with a tip resistance of 2–4 MΩ, which was tightly inserted into a holder, was maneuvered using a WR-98 micromanipulator (Narishige). Patch-clamp experiments were performed in the voltage-clamp mode with either cell-attached or whole-cell configuration (rupturing of the membrane patch after GΩ formation) by using a RK-400 Patch-Clamp Amplifier (Bio-Logic, Claix, France) connected to a laptop. Shortly before GΩ formation, potential correction was performed for a liquid junction potential, which developed at the electrode’s tip because of the difference in the compositions of the internal and bath solutions.
# SAF is efficacious as an add-on therapy following subthalamic nucleus deep brain stimulation in patients with Parkinson’s disease. Therefore, we investigated whether SAF could modify the inactivation of currents induced by a train of depolarizing stimuli. The test cells were maintained at −80 mV and subjected to repetitive depolarization to −10 mV (40 ms per pulse; rate of 20 Hz; duration of 1 s). Similar to the findings of relevant studies, during the control period (the absence of SAF), INa(T) inactivation was noticed to be induced by 1 s of repetitive depolarization stimuli (−80 to −10 mV) with a decaying time constant of 65 ± 4 ms (n = 7; Fig. 6A, 6B and 6C). […] In the presence of 3 and 10 μM SAF, the exponential time course of INa(T) induced by the same train of depolarizing pulses was longer at 107 ± 5 ms (n = 7, P < 0.05) and 124 ± 6 ms (n = 7, P < 0.05), respectively. Furthermore, as MGB and ranolazine have been reported to suppress the amplitude of INa effectively, we added ranolazine (Ran; 10 μM) and mirogabalin (MGB; 10 μM) separately in the presence of 10 μM SAF. […] The application of Ran (10 μM) or MGB (10 μM) alone decreased the decaying time constant of INa(T) during the same train of depolarizing pulses to 39 ± 4 ms (n = 7, P < 0.05) or 42 ± 4 ms (n = 7, P < 0.05), respectively, from a control value of 66 ± 5 ms (n = 7). Thus, in addition to increasing the magnitude of INa(T), SAF prominently affects the decaying of INa(T) subjected to a 1-s train of depolarizing pulses.
# Fig. 6 Effect of SAF on INa(T) decay induced by a train of depolarizing pulses in GH3 cells. The train of pulses comprised twenty 40-ms pulses (voltage increased to −10 mV) with 10-ms intervals at −80 mV for a total duration of 1 s. (A) Current traces during the control period (a, blue) and during exposure to 10 μM SAF (b, red). The voltage-clamp protocol used is indicated atop the current traces. In panel A, the third graphs (blue and red) from the top are the expanded forms of the second graphs (brown dashed boxes). (B) The relative amplitude of INa(T) versus pulse train duration in the absence (blue open circles) and presence (red open squares) of 10 μM SAF (mean ± standard error of the mean; n = 7 for each point). The INa(T) amplitudes were normalized by dividing the current amplitudes at the end of each pulse-train stimulation by those obtained at the beginning of the pulse train stimulation. The gray continuous lines on which the data points are overlaid are reliably fitted with a single exponential.
# [3] = test system: single NaV channels in GH3 cells; assay: Cell-attached single-channel NaV current recordings in GH3 cells; details: n = 7
# Procedure: The composition of the external or bath solution [4-(2-hydroxyethyl)-1-piperazineethanesulfonic acid (HEPES)-buffered normal Tyrode’s solution] was as follows: 136.5 mM NaCl, 1.8 mM CaCl2, 5.4 mM KCl, 0.53 mM MgCl2, 5.5 mM glucose, and 5.5 mM HEPES–NaOH (pH 7.4). To measure K^+ currents (data not shown), we filled a patch pipette with an internal solution comprising 140 mM KCl, 1 mM MgCl2, 3 mM adenosine 5′-triphosphate disodium salt, 0.1 mM guanosine 5′-triphosphate disodium salt, 0.1 mM ethylene glycol tetraacetic acid, and 5 mM HEPES–KOH buffer (pH 7.2). To record the whole-cell INa, the K^+ in the internal solution was substituted with Cs^+, and the pH of the solution was adjusted to 7.2 by adding cesium hydroxide. In the single-channel experiments performed to record NaV currents, the pipette was filled with a Na^+-rich solution containing 136 mM NaCl, 0.53 mM MgCl2, 5.5 mM glucose, and 5.5 mM HEPES–NaOH (pH 7.2). The bath medium was a K^+-rich solution comprising 130 mM KCl, 10 mM NaCl, 3 mM MgCl2, 6 mM glucose, and 10 mM HEPES-KOH (pH 7.4). The solutions and culture media were generally filtered on the day of use by using sterile Acrodisc Syringe Filters containing a 0.2-μm Supor Membrane (Bio-Check; New Taipei City, Taiwan).
# Single-channel NaV currents induced by depolarizing pulses ranging from −100 to −10 mV were measured and subsequently analyzed using pCLAMP 10.7. The opening events of the channels were generally evaluated through multi-Gaussian adjustments of the distribution of amplitude across channels. Functional independence between channels was determined by comparing the observed stationary probabilities with the values calculated based on the binomial law. For dwell-time analyses, only a single channel was used in the patch-clamp experiment.
# To elucidate the mechanisms underlying the effects of SAF on the magnitude of INa, we investigated the actions of SAF and SAF plus MGB on single-channel NaV currents. This experiment was performed using the cell-attached configuration of the voltage-clamp test. Test cells were placed in K^+-rich solution, and the recording pipette was filled with Na^+-rich solution. SAF (10 μM) increased channel activity and decelerated current inactivation when the cells were exposed to depolarization stimuli ascending from –100 to –10 mV (rate of 0.1 Hz; Fig. 9A). Furthermore, the addition of MGB (10 μM) in the presence of 10 μM SAF reduced the probability of channel opening. […] Moreover, with the presence of 10 μM SAF, the mean open time of NaV channels was prolonged to […] (n = 7, P < 0.05) msec from a control value of 2.3 ± 0.3 msec (n = 7). […] Consistent with these findings, the mean open time of the NaV channel in the presence of 10 μM SAF (5.9 ± 1.1 ms; n = 7; P < 0.05) was longer than that in the control period (2.3 ± 0.3 ms, n = 7); the subsequent further addition of 10 μM MGB decreased the mean open time to 3.7 ± 0.7 ms (n = 7, P < 0.05) (Fig. 9B). […] MGB added during SAF exposure reversed the SAF-induced increase in NaV channel activity.
# [4] = test system: voltage-gated sodium ion (NaV) channels in pituitary GH3 cells; assay: Window INa [INa(W)] induced by ascending ramp voltage (−100 to +40 mV over 200 ms) in GH3 cells; details: Ran 10 μM added in the presence of SAF 10 μM
# Description: The sigmoidal relationship between Vramp-induced INa(W) and the upsloping Vramp (nonlinear current–voltage relationship) was investigated and fitted with the Boltzmann function as follows: [drawing 2]
# where V is the membrane potential in millivolts, Erev is the reversal potential of INa, G is the INa conductance in nanosiemens, I is the current, Vh is the voltage at which half-maximal activation or inactivation of the current occurs, q is the apparent gating charge, F is Faraday’s constant, R is the universal gas constant, and T is the absolute temperature.
# The free energy ∆G0 for the gating of INa(W) was determined by assuming a two-state gating model [equilibrium between closed (resting) and open states] of the NaV channel. The ∆G0 for the activation of INa(W) at 0 mV could be calculated as follows: q × F × V1/2 [45, 46]. The standard errors in ∆G0 ( [drawing 3] ) could be calculated as follows: […]
# In the present study, we investigated whether the addition of SAF to GH3 cells modulates the magnitude of INa(W) induced by ascending Vramp. Test cells were maintained at −80 mV and subjected to Vramp ascending from −100 to +40 mV over 200 ms (i.e., ramp speed of 0.7 mV/ms) to induce INa(W). […] The ∆area values of INa(W) in the absence and presence of SAF and SAF plus Ran were calculated (Fig. 7B).
# Fig. 7 Stimulatory effects of SAF on window INa [INa(W)] induced by an ascending ramp voltage Vramp in GH3 cells. For the experiments, the test cells were maintained at −80 mV and subjected to Vramp ranging from −100 to +40 mV over 200 ms (ramp speed of 0.7 mV/ms). (A) INa(W) trace in the absence (a, blue) and presence (b, red) of 10 μM SAF. The inset indicates the Vramp protocol, and the downward deflection indicates inward-directed current. The continuous gray lines corresponding to the untreated or SAF-treated (10 μM) cells were fitted (least-squares minimization) with the Boltzmann equation. The values of […] and q (apparent gating charge) induced by ascending Vramp over 200 ms in the absence (blue) of SAF were, respectively, −34 mV and 2.1 e; the corresponding values in the presence (red) of 10 μM SAF were −38 mV and 2.8 e, respectively. (B) Summary graph illustrating the effects of SAF (3 and 10 μM) and SAF (10 μM) plus Ran (10 μM) on the Δarea of INa(W) in GH3 cells (mean ± standard error of the mean; n = 7 for each point). The value of Δarea was measured at a voltage ranging from −80 and +40 mV, which corresponded to INa(W) induced by the ascending Vramp. […] (C) Summary graph illustrating the effects of SAF (3 and 10 μM) and SAF plus Ran (10 μM) on ΔG0 (mean ± standard error of the mean; n = 7 for each point). The estimation of ΔG0 for the induction of instantaneous INa(W) is described in the Materials and Methods section.
# [5] = 10 μM MGB added in the presence of 10 μM SAF
smiles,measurement,setting,value
C/C=C/C1C(C(=O)OCc2c(F)c(F)c(COC)c(F)c2F)C1(C)C (stereo not drawn) [metofluthrin],effect on rapid inward current (INa) induced by short depolarizing pulse,[1]; 10 μM,stimulated
"CCC1=C[C@@H]2[C@H](C1)C[C@]2(CN)CC(=O)O [MGB, mirogabalin]",effect on SAF-induced increase in decaying time constant of INa(T),[2],effectively attenuated the SAF-induced increase in the decaying time constant
same,decaying time constant of INa(T) during train of depolarizing pulses,[2],42 ± 4 ms
same,mean open time of the NaV channel,[3]; [5],3.7 ± 0.7 ms
same,open-state probability of the NaV channel,[3]; [5],0.041 ± 0.007
same,amplitude of the single-channel current,"[3]; SAF plus MGB, control 2.01 ± 0.35 pA",2.00 ± 0.44 pA
NCCc1ccc(O)c(O)c1 [dopamine],reversal of SAF-mediated increase in INa(T),[1],neither dopamine nor serotonin reversed the SAF-mediated increase in INa(T)
same,effect on magnitude of INa(T),[1],neither dopamine nor serotonin altered the magnitude of INa(T)
"Cc1c(F)c(F)c(COC(=O)[C@@H]2[C@H](/C=C(\Cl)C(F)(F)F)C2(C)C)c(F)c1F (racemic) [Tef, tefluthrin]",effect on rapid inward current (INa) induced by short depolarizing pulse,[1]; 10 μM,stimulated
"COc1ccccc1OCC(O)CN1CCN(CC(=O)Nc2c(C)cccc2C)CC1 (stereo not drawn) [Ran, ranolazine]",effect on SAF-mediated increase in ∆G0 of INa(W),[4],effectively attenuated the SAF-mediated increase in ∆G0
same,effect on SAF-mediated increase in ∆area of INa(W),[4],reversed the SAF-mediated increase
same,effect on SAF-induced increase in decaying time constant of INa(T),[2],effectively attenuated the SAF-induced increase in the decaying time constant
same,decaying time constant of INa(T) during train of depolarizing pulses,[2],39 ± 4 ms
NCCc1c[nH]c2ccc(O)cc12 [serotonin],reversal of SAF-mediated increase in INa(T),[1],neither dopamine nor serotonin reversed the SAF-mediated increase in INa(T)
same,effect on magnitude of INa(T),[1],neither dopamine nor serotonin altered the magnitude of INa(T)
"NC1=N[C@H](O)[C@H]2[C@H]3O[C@]4(O)O[C@@H]([C@@H](O)[C@@]2(N1)[C@@H]4O)[C@]3(O)CO [TTX, tetrodotoxin]",amplitude of INa(L),[1],2 ± 1 pA
same,amplitude of INa(T),[1],18 ± 2 pA
same,effect on rapid inward current (INa) induced by short depolarizing pulse,[1],blocked
